Laboratory results published in patent US20080260644A1, “CHLORIDE TRANSPORT UPREGULATION FOR THE TREATMENT OF TRAUMATIC BRAIN INJURY” (priority 2005, published 2008).

Assays:
dentate granule cells = assay: Gramicidin perforated patch recording of the membrane potential response to GABA in dentate granule cells in brain slices; assay type: cell-based, mouse
Procedure: Brain slices were prepared as previously reported (Witgen et al. (2005) Neuroscience, 133:1-15). Perforated patch recordings were conducted at room temperature from visually identified DG neurons using infrared differential interference contrast video microscopy (Stuart et al. (1993) Pflugers Arch., 423:511-8). Cells were voltage clamped at −60 mV, and signals were recorded and amplified with Axopatch 200 (Axon instruments, Foster city, CA), filtered at 2 kHz, digitized, and stored on a PC microcomputer for off line analysis. Electrodes were pulled to a resistance between 6 and 8 MΩ when filled with an internal solution composed of in (mM): 100 KCl, 10 Hepes, pH 7.4 (KOH), on a two stage puller (Sutter instruments, Novato, Calif.). Gramicidin (Sigma, St. Louis) was dissolved in dimethyllsulfuxide (DMSO, Sigma) (1-2 mg/ml) then diluted in the pipette filling solution (1:1000). Progress of membrane patch perforation was evaluated by following the decrease in access resistance (Ra) and recordings were begun once Ra had stabilized ([…]). Current-voltage (IV) relationships were generated using a voltage ramp (−110 to +40 ata rate of 107 mV/ms) in the absence and presence of agonist (GABA, 100 μM, applied 125 ms, 40-60 PSI using a Picospritzer II, General Valve Corporation, Fairfield, N.J.). For chloride fluorescence experiments, the internal solution was composed of (in mM) Kgluconate, 145; MgCl2, 2; BAPTA, 0.1; KCl, 2.5; NaCl, 2.5; HEPES, 10; GTP-Tris, 0.5; Mg-ATP, 2; pH 7.4 (KOH; Vhold=0 mV). For low K^+ experiments, KCl concentration was reduced from 3 to 1 mM while the concentration of NaCl was increased to maintain tonicity.
In order to investigate the functional consequences of reduced KCC2 expression in DG from injured animals, gramacidin perforated patch recordings were performed in dentate granule cells in brain slices derived from sham and FPI animals. Current-voltage (1-V) relationships were created using a voltage ramp that stepped the membrane voltage from a holding potential of −60 mV to −110 mV for 200 ms and then ramped the voltage from −110 to +40 mV at a rate of 107 mV/msec. I-V relationships were plotted by subtracting ramp currents recorded in control solution (aCSF) from currents recorded in the presence of ionophoresed agonist (GABA 100 μm) in brain slices from both sham (FIG. 2A) and FPI (FIG. 2B) animals. […] Mean EGABA values were −72±4.3 (n=7) in sham slices and −51±4.0 mV (n=16) in FPI slices. To ensure that the perforated patch configuration remained intact during the experiment, in several dentate granule cells (recorded in slices from both sham and injured animals) the patch was subsequently ruptured to enter into the whole cell configuration. […]

dentate gyrus = assay: Dentate gyrus throughput index (TI), voltage sensitive dye fluorescence in hippocampal slices; assay type: cell-based, mouse
Description: Slices were stimulated in the perforant pathway with one theta burst stimulation (TBS) (5 pulses of 50 μA at 100 Hz). Circles (kernels) represent average fluorescent signals in the DG and hilus respectively. FIG. 5B is a graph of the percent throughput of sham and injured (LFPI) mice.
Normal hippocampal function is directly determined by a balance between neuronal excitation and inhibition. Within the hippocampus there are three interconnected subregions referred to collectively as the ‘Trisynaptic Circuit.’ This circuit consists of the dentate gyrus (DG), area CA3, and area CA1, each having distinct physiological roles. The DG “filters” out aberrant or excessive input to the hippocampus and limits this activity from propagating further along the hippocampal circuit. […]
It is believed that the DG acts as a filter because it is extraordinarily resistant to the generation of synchronized bursting characteristic of epileptic seizures. […] Making use of fluorescent voltage sensitive dyes as a measure of hippocampal neuronal activity, a straightforward relationship has been devised in order to quantify the efficacy of dentate gyrus filtering capacity. “Throughput Index” (TI) is defined as the amount of fluorescence in the hilus divided by the fluorescence in the upper (suprapyramidal) blade of the dentate gyrus induced by afferent (perforant path) stimulation. […]

In the case of `NCCCC(=O)O` [GABA, gamma-aminobutyric acid], the “membrane potential response to iontophoresed GABA” value (dentate granule cells; DG neurons from naïve or sham animals, GABA 100 μM) is reported as −14±0.7 mV and the “membrane potential response to iontophoresed GABA” value (dentate granule cells; DG neurons in slices from injured (FPI) animals) is reported as “depolarizing response”.
For `CCCC(=O)O[C@@H]1[C@@H](C)[C@@]2(O)[C@@H](C=C(CO)C[C@]3(O)C(=O)C(C)=C[C@@H]23)[C@@H]2C(C)(C)[C@]12OC(=O)CCC` [PDBu, phorbol 12,13-dibutyrate], the “effect on dentate gyrus throughput index (TI)” value (dentate gyrus; slices from brain injured (FPI) animals) was “significantly (p<0.05) reduces” and the “effect on DG filtering (TI)” value (dentate gyrus; slices from sham animals) was “does not affect”.
For `CCCCNc1cc(C(=O)O)cc(S(N)(=O)=O)c1Oc1ccccc1` [bumetanide], the “GABA response in the presence of bumetanide compared to GABA alone” value (dentate granule cells; slices from sham animals, bumetanide 10 μM) was 39% and the “response to focally applied GABA in the presence of bumetanide” value (dentate granule cells; slices from sham animals, bumetanide 10 μM bath applied, n=15) was −5±3.1 mV.
